This passage reports MIC and zone of inhibition results from ChEMBL document CHEMBL2424616, “Synthesis and antimicrobial activity of novel 5-(1-adamantyl)-2-aminomethyl-4-substituted-1,2,4-triazoline-3-thiones” (2013).

In brackets after ≈: the same amount, converted by molar mass.

Assay [1] concerns Staphylococcus aureus. As to the kind of experiment: Antibacterial activity against Staphylococcus aureus IFO 3060 after 24 hrs by two fold dilution method. It counts as functional. The conditions noted are these: IFO 3060, 24 h.
Assay [2] relates to Candida albicans. As to the kind of experiment: Antifungal activity against Candida albicans IFO 0583 assessed as growth inhibition at 200 ug/disc after 48 hrs by agar disc-diffusion method. It is filed as functional. The conditions noted are these: IFO 0583, 48 h, read-out: DIZ. A general note: A growth-free zone around the sample is the usual read-out of agar diffusion tests.

The test system of assay [3] is Micrococcus luteus. As to the kind of experiment: Antibacterial activity against Micrococcus luteus IFO 3232 after 24 hrs by two fold dilution method. The settings on record: IFO 3232, 24 h. It is filed as functional.
Assay [4] has as its system Bacillus subtilis. As to the kind of experiment: Antibacterial activity against Bacillus subtilis IFO 3007 after 24 hrs by two fold dilution method. It is filed as functional. The settings on record: IFO 3007, 24 h.
For assay [5], the system named is Micrococcus luteus. The assay can be described thus: Antibacterial activity against Micrococcus luteus IFO 3232 assessed as growth inhibition at 200 ug/disc after 24 hrs by agar disc-diffusion method. It counts as functional. The conditions noted are these: IFO 3232, 24 h, read-out: DIZ.
Assay [6] deals with Pseudomonas aeruginosa. The assay can be described thus: Antibacterial activity against Pseudomonas aeruginosa IFO 3448 assessed as growth inhibition at 200 ug/disc after 24 hrs by agar disc-diffusion method. It is filed as functional. The settings on record: IFO 3448, 24 h, read-out: DIZ.
For assay [7], the system named is Escherichia coli. As to the kind of experiment: Antibacterial activity against Escherichia coli IFO 3301 assessed as growth inhibition at 200 ug/disc after 24 hrs by agar disc-diffusion method. It is filed as functional. The settings on record: IFO 3301, 24 h, read-out: DIZ.
In assay [8] the test system is Bacillus subtilis. The assay can be described thus: Antibacterial activity against Bacillus subtilis IFO 3007 assessed as growth inhibition at 200 ug/disc after 24 hrs by agar disc-diffusion method. It counts as functional. The conditions noted are these: IFO 3007, 24 h, read-out: DIZ.
The subject of assay [9] is Staphylococcus aureus. As to the kind of experiment: Antibacterial activity against Staphylococcus aureus IFO 3060 assessed as growth inhibition at 200 ug/disc after 24 hrs by agar disc-diffusion method. It counts as functional. The conditions noted are these: IFO 3060, 24 h, read-out: DIZ.
Assay [10] concerns Escherichia coli. As to the kind of experiment: microbe, parasite or virus in culture. The conditions noted are these: IFO 3301, 24 h.
Description: Antibacterial activity against Escherichia coli IFO 3301 after 24 hrs by two fold dilution method
Assay [11] concerns Pseudomonas aeruginosa. As to the kind of experiment: Antibacterial activity against Pseudomonas aeruginosa IFO 3448 after 24 hrs by two fold dilution method. It is filed as functional. The conditions noted are these: IFO 3448, 24 h.

For the compound `CCN1CCN(Cn2nc(C34CC5CC(CC(C5)C3)C4)n(/N=C/c3ccc(O)cc3)c2=S)CC1`, the MIC is 1 µg/mL (≈ 2.08 µM) in [1], 2 µg/mL (≈ 4.16 µM) in assay [3] and 1 µg/mL (≈ 2.08 µM) in assay [4]. Further, the zone of inhibition at 200 µg/disc in [2] was under 10 mm; in [5], 25 mm; in assay [6], 13 mm; in [7], 17 mm; in assay [8], 29 mm; in [9] it was 30 mm.

Turning to `CCOC(=O)N1CCN(Cn2nc(C34CC5CC(CC(C5)C3)C4)n(/N=C/c3ccccc3O)c2=S)CC1`, the MIC in [1] and in assay [4] was 4 µg/mL (≈ 7.62 µM) in each case. The zone of inhibition at 200 µg/disc is under 10 mm in assay [2]; 16 mm in assay [5]; under 10 mm in [6]; under 10 mm in assay [7]; 19 mm in [8]; 18 mm in assay [9].

Take `Cn1c(C23CC4CC(CC(C4)C2)C3)nn(CN2CCN(c3cccc(C(F)(F)F)c3)CC2)c1=S`: the MIC in [1] was found to be 0.5 µg/mL (≈ 1.02 µM); in assay [3] it was 4 µg/mL (≈ 8.14 µM); in assay [10], 16 µg/mL (≈ 32.5 µM); in [4] it was 0.5 µg/mL (≈ 1.02 µM); in assay [11] it was 8 µg/mL (≈ 16.3 µM). In addition, the zone of inhibition at 200 µg/disc in assay [2] is under 10 mm; in assay [5] it was 28 mm; in [6], 21 mm; in [7] it was 19 mm; in [8], 33 mm; in assay [9] it was 30 mm.

Turning to `COc1ccccc1N1CCN(Cn2nc(C34CC5CC(CC(C5)C3)C4)n(C)c2=S)CC1`, the MIC was found to be 4 µg/mL (≈ 8.82 µM) in [1], 16 µg/mL (≈ 35.3 µM) in assay [3] and 4 µg/mL (≈ 8.82 µM) in assay [4]. The zone of inhibition at 200 µg/disc in [2] was under 10 mm; in assay [5], 19 mm; in assay [6], under 10 mm; in assay [7] it was 11 mm; in [8] it was 20 mm; in assay [9] it was 22 mm.

With `Oc1ccccc1/C=N/n1c(C23CC4CC(CC(C4)C2)C3)nn(CN2CCN(Cc3ccccc3)CC2)c1=S`, the MIC in assay [1] and in assay [4] was 2 µg/mL (≈ 3.68 µM) throughout. Moreover, the zone of inhibition at 200 µg/disc is under 10 mm in assay [2]; 17 mm in assay [5]; 11 mm in assay [6]; 11 mm in [7]; 21 mm in [8]; 19 mm in [9].

Turning to `FC(F)(F)c1ccc(NCn2nc(C34CC5CC(CC(C5)C3)C4)n(-c3ccc(Cl)cc3)c2=S)cc1`, the zone of inhibition at 200 µg/disc in assay [2] was under 10 mm; in assay [5] it was 18 mm; in assay [6], 11 mm; in assay [7], 14 mm; in assay [8] it was 22 mm; in assay [9], 16 mm. The values for the MIC in [3] and in assay [4] were 16 µg/mL (≈ 30.8 µM) and 8 µg/mL (≈ 15.4 µM), respectively.

Take `Oc1ccccc1/C=N/n1c(C23CC4CC(CC(C4)C2)C3)nn(CN2CCN(c3ccccc3)CC2)c1=S`: the figures for the MIC in [1], in [3] and in assay [4] were 8 µg/mL (≈ 15.1 µM), 16 µg/mL (≈ 30.3 µM) and 4 µg/mL (≈ 7.57 µM), respectively. Moreover, the zone of inhibition at 200 µg/disc is under 10 mm in assay [2]; 18 mm in assay [5]; 12 mm in [6]; 14 mm in assay [7]; 25 mm in [8]; 22 mm in assay [9].

On to `COc1ccccc1N1CCN(Cn2nc(C34CC5CC(CC(C5)C3)C4)n(/N=C/c3ccc(O)cc3)c2=S)CC1`, for which the MIC in assay [1] was 1 µg/mL (≈ 1.79 µM); in [3], 16 µg/mL (≈ 28.6 µM); in [4], 1 µg/mL (≈ 1.79 µM). In addition, the zone of inhibition at 200 µg/disc in [2] was under 10 mm; in [5], 18 mm; in [6] it was 14 mm; in assay [7], 16 mm; in assay [8] it was 29 mm; in assay [9] it was 30 mm.

Take `COc1ccccc1N1CCN(Cn2nc(C34CC5CC(CC(C5)C3)C4)n(-c3ccc(Cl)cc3)c2=S)CC1`: the MIC in assay [1] and in [4] was 16 µg/mL (≈ 29.1 µM) in each case. In addition, the zone of inhibition at 200 µg/disc was under 10 mm in assay [2]; 16 mm in assay [5]; under 10 mm in assay [6]; under 10 mm in assay [7]; 18 mm in assay [8]; 18 mm in [9].

Regarding `COc1ccccc1N1CCN(Cn2nc(C34CC5CC(CC(C5)C3)C4)n(/N=C/c3ccccc3O)c2=S)CC1`, the MIC in assay [1] amounted to 0.5 µg/mL (≈ 0.895 µM); in assay [3] it was 2 µg/mL (≈ 3.58 µM); in assay [10] it was 8 µg/mL (≈ 14.3 µM); in assay [4], 0.5 µg/mL (≈ 0.895 µM). Also, the zone of inhibition at 200 µg/disc in assay [2] is under 10 mm; in [5], 25 mm; in [6], 12 mm; in assay [7], 18 mm; in [8] it was 33 mm; in assay [9] it was 28 mm.

Regarding `CCN1CCN(Cn2nc(C34CC5CC(CC(C5)C3)C4)n(/N=C/c3ccccc3O)c2=S)CC1`, the MIC in assay [1] was found to be 1 µg/mL (≈ 2.08 µM); in [3], 2 µg/mL (≈ 4.16 µM); in assay [4], 0.5 µg/mL (≈ 1.04 µM). Further, the zone of inhibition at 200 µg/disc in [2] is under 10 mm; in [5] it was 24 mm; in assay [6], 11 mm; in assay [7] it was 16 mm; in [8], 30 mm; in assay [9], 26 mm.

With `Oc1ccc(/C=N/n2c(C34CC5CC(CC(C5)C3)C4)nn(CN3CCN(c4ccccc4)CC3)c2=S)cc1`, the MIC was found to be 4 µg/mL (≈ 7.57 µM) in [1], 16 µg/mL (≈ 30.3 µM) in [3] and 4 µg/mL (≈ 7.57 µM) in assay [4]. In addition, the zone of inhibition at 200 µg/disc is under 10 mm in assay [2]; 19 mm in assay [5]; under 10 mm in [6]; 16 mm in assay [7]; 22 mm in [8]; 22 mm in assay [9].

For the compound `Cn1c(C23CC4CC(CC(C4)C2)C3)nn(CN2CCN(c3ccccc3)CC2)c1=S`, the results for the MIC in assay [1] and in assay [4] were 8 µg/mL (≈ 18.9 µM) and 16 µg/mL (≈ 37.8 µM), respectively. Further, the zone of inhibition at 200 µg/disc is under 10 mm in assay [2]; 14 mm in [5]; under 10 mm in [6]; under 10 mm in [7]; 18 mm in assay [8]; 19 mm in assay [9].
